Values joined by “and” are separate entries in the source; they are usually repeats but may differ in a detail not shown here. Equal values may be shown once. Active and inactive are the calls of the source. The rule behind the calls is not given here.
Tested on: CAI-1 sensor histidine kinase CqsS (Vibrio cholerae)
Assay: CqsS sensor histidine kinase agonist dose response, Vibrio cholerae WN1103 delta luxQ, confirmatory (AID 651841)
Settings: V. cholerae WN1103 delta luxQ, luciferase light, 6 h

Row | Compound | AC40
1 | CCn1nnnc1NCc1ccc(C(C)C)cc1 | 5.01 nM and 45.1 nM
2 | CCn1nnnc1NCc1cccc(N2CCCC2)c1 | 51.2 nM
3 | Cn1nnnc1NCc1ccc(N2CCCC2)cc1 | 351 nM
4 | CCCn1nnnc1NCc1ccc(N2CCCC2)cc1 | 12.1 nM
5 | CCn1nnnc1NCc1ccc(N2CCCC2)cc1 | 10.7 nM
6 | O=C(Cc1ccc(-c2ccccc2)cc1)NC1CCCCC1 | 8980 nM
7 | CCCn1nnnc1NCc1ccc(C(C)C)cc1 | 319 nM
8 | CCn1nnnc1CCc1ccc(N2CCCC2)cc1 | 713 nM
9 | O=C(Cc1ccc(-c2ccccc2)cc1)NC1CCOCC1 | 1200 nM
10 | O=C(Cc1ccc(-c2ccccc2)cc1)NC1CCC1 | 280 nM
11 | CCC(C)NC(=O)Cc1ccc(-c2ccccc2)cc1 (stereo not given) | 2060 nM
12 | CC(C)c1ccc(CNc2nnnn2C)cc1 | 577 nM
13 | CC(C)NC(=O)Cc1ccc(-c2ccccc2)cc1 | 2500 nM
14 | CCn1nnnc1NCc1ccc(N2CCCCC2)cc1 | 55.5 nM
15 | O=C(Cc1ccc(-c2ccccc2)cc1)NC1CCCC1 | 212 nM and 313 nM
16 | CCC(CC)NC(=O)Cc1ccc(-c2ccccc2)cc1 | 2200 nM
17 | CCCCn1nnnc1NCc1ccc(N2CCCC2)cc1 | 2640 nM

Same assay, conditions: V. cholerae WN1103 delta luxQ, luciferase light, 6 h; at 80 µM (top of the series)

Row | Compound | activation
18 | c1ccc(Cn2nnnc2NCc2ccc(N3CCCC3)cc2)cc1 | 0.279% (inactive)
19 | O=C(Cc1ccccc1C(F)(F)F)NC1CCCC1 | 0.044% (inactive)
20 | Fc1ccc(Cn2nnnc2NCc2ccc(N3CCCC3)cc2)cc1 | 0.54% (inactive)
21 | CCn1nnc(NCc2ccc(C)cc2)n1 | 0.069% (inactive)
22 | O=C(Cc1ccccc1F)NC1CCCC1 | 0.603% (inactive)
23 | CCCn1nnnc1NCc1ccccc1Cl | 0.104% (inactive)
24 | CCn1nnnc1NCc1cccc(OC)c1 | 24.5% (inactive)
25 | c1ccc(Cn2nnc(NCc3ccc(N4CCCC4)cc3)n2)cc1 | 0.159% (inactive)
26 | O=C(NCc1ccc(-c2ccccc2)cc1)C1CCCC1 | 3.17% (inactive)
27 | CCn1nccc1NCc1ccc(N2CCCC2)cc1 | 0.149% (inactive)
28 | O=C(Cc1cccc(OC(F)(F)F)c1)NC1CCCC1 | 2.18% (inactive)
29 | CCn1nnnc1NCc1ccccc1N1CCCC1 | 0.052% (inactive)
30 | O=C(Cc1ccccc1Cl)NC1CCCC1 | 0.107% (inactive)
31 | CCc1ccccc1NCc1ccc(N2CCCC2)cc1 | 0.105% (inactive)
32 | CS(=O)(=O)c1ccc(CC(=O)NC2CCCC2)cc1 | 0.008% (inactive)
33 | Cc1ccccc1CC(=O)NC1CCCC1 | 0.164% (inactive)
34 | O=C(Cc1cccc(F)c1)NC1CCCC1 | 0.377% (inactive)
35 | CCn1nccc1/N=C/c1ccc(N2CCCC2)cc1 | 0.487% (inactive)
36 | COc1ccc(CC(=O)NC2CCCC2)cc1 | 13% (inactive)
37 | c1ccc(-n2nnnc2NCc2ccc(N3CCCC3)cc2)cc1 | 0.501% (inactive)
38 | Cc1ccc(Cn2nnnc2NCc2ccc(N3CCCC3)cc2)cc1 | 0.549% (inactive)
39 | O=C(Cc1ccccc1OC(F)(F)F)NC1CCCC1 | 0.045% (inactive)
40 | CCn1nnc(CCc2ccc(N3CCCC3)cc2)n1 | 0.131% (inactive)

From PubChem BioAssay AID651841 (Broad Institute, 2012)
